Read-outs that look alike come from different tables or passages of the source.
Columns and labels:
MAGL [1] = biological target: T1, MAGL (Mus musculus, UniProt O35678); test: Mouse brain proteomes from inhibitor treated mice (oral gavage, sacrificed 4 h after administration); type: in vivo; set-up: mouse brain membrane fraction for mouse assays; from tissue; host or cells: mouse brain (membrane fraction in vitro; brain proteomes of treated C57Bl/6J mice in vivo); conditions: 5 mg/kg oral gavage, brain proteome 4 h after administration, read-out: MAGL % inh. 5 mg/kg (mouse)
T1 sequence (O35678 1-303): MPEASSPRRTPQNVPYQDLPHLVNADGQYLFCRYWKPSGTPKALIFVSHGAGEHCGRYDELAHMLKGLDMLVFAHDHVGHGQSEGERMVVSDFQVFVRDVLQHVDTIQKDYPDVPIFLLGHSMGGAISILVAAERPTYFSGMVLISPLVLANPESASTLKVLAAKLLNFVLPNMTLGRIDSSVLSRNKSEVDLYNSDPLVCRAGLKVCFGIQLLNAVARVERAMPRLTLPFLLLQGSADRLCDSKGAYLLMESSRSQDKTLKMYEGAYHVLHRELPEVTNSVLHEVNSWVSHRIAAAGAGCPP

MAGL [2] = biological target: T1, MAGL; test: In vitro competitive activity-based protein profiling, MAGL, mouse; conditions: read-out: MAGL % inh. 1 μM (mouse)
MAGL [3] = biological target: T2, MAGL (Homo sapiens, UniProt Q99685); test: In vitro competitive activity-based protein profiling, MAGL, human; conditions: read-out: MAGL % inh. 1 μM (human)
T2 sequence (Q99685 1-303): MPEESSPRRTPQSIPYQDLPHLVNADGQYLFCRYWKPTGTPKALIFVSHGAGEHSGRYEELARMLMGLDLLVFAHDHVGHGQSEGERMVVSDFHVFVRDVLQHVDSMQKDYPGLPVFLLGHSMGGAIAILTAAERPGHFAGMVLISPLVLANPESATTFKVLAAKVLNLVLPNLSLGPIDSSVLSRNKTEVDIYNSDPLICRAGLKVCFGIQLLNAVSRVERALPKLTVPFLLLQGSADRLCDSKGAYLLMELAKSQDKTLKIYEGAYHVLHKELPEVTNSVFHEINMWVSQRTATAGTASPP

Row | inhibition at 5 mg/kg (MAGL [1]) [%] | inhibition at 1 µM (MAGL [2]) [%] | inhibition at 1 µM (MAGL [3]) [%] | inhibition at 5 mg/kg (MAGL [1]; C57Bl/6J mice) [%] | SMILES
1 | 0 to 25 | > 75 | > 75 |  | O=C(O)c1ccn(C(=O)N2CCC(Oc3ccc(C(F)(F)F)cc3N3CCCC3)CC2)n1 [Example 307, 1-(4-(2-(pyrrolidin-1-yl)-4-(trifluoromethyl)phenoxy)piperidine-1-carbonyl)-1H-pyrazole-3-carboxylic acid]
2 | > 75 | > 75 | > 75 |  | C[C@@H]1C[C@@H](N(C)Cc2cccc(C(F)(F)F)c2)CCN1C(=O)n1ccc(C(N)=O)n1 [Example 260, 1-((2R,4S)-2-methyl-4-(methyl(3-(trifluoromethyl)benzyl)amino)piper-idine-1-carbonyl)-1H-pyrazole-3-carboxamide]
3 | 25 to 50 | > 75 | > 75 |  | CC(C)c1cccc(O[C@H]2C[C@@H]3CN(C(=O)n4ccc(C(=O)O)n4)C[C@@H]3C2)c1 [Example 220, 1-(trans-5-(3-isopropylphenoxy)ocatahydrocyclo-penta[c]pyrrole-2-carbonyl)-1H-pyrazole-3-carboxylic acid]
4 |  | > 75 | > 75 | 0 to 25 | CC(C)(O)COc1cccc(O[C@H]2C[C@@H]3CN(C(=O)n4ccc(C(=O)O)n4)C[C@@H]3C2)c1Cl [Example 451, 1-(trans-5-(2-chloro-3-(2-hydroxy-2-methylpropoxy)phenoxy)octahydro-cyclopenta[c]pyrrole-2-carbonyl)-1H-pyrazole-3-carboxylic acid]
5 | > 75 | > 75 | > 75 |  | C[C@@H]1C[C@H](N(C)Cc2cccc(C(F)(F)F)c2)CCN1C(=O)n1ccc(C(N)=O)n1 [Example 257, 1-((2R,4R)-2-methyl-4-(methyl(3-(trifluoromethyl)benzyl)amino)piper-idine-1-carbonyl)-1H-pyrazole-3-carboxamide]
6 | 0 to 25 | > 75 | > 75 |  | Cc1cn(C(=O)N2C[C@H]3C[C@H](OCc4cc(F)cc(Cl)c4)C[C@H]3C2)nc1C(=O)O [Example 252, 1-(trans-5-((3-chloro-5-fluorobenzyl)oxy)octahydrocyclopenta [c]pyrrole-2-carbonyl)-4-methyl-1H-pyrazole-3-carboxylic acid]
7 | 0 to 25 | > 75 | > 75 |  | O=C(O)c1ccn(C(=O)N2C[C@H]3C[C@H](Oc4cccc(-c5cccnc5)c4)C[C@H]3C2)n1 [Example 241, 1-(trans-5-(3-(pyridin-3-yl)phenoxy)octa-hydrocyclopenta[c]pyrrole-2-carbonyl)-1H-pyrazole-3-carboxylic acid]
8 | 0 to 25 | > 75 | > 75 |  | O=C(O)c1ccn(C(=O)N2C[C@H]3C[C@H](Oc4cc(Cl)cc(Cl)c4)C[C@H]3C2)n1 [Example 230, 1-(trans-5-(3,5-dichlorophenoxy)octahydrocyclopenta [c]pyrrole-2-carbonyl)-1H-pyrazole-3-carboxylic acid]

More lines, now with the values behind:

Row | SMILES | inhibition at 5 mg/kg (MAGL [1]) [%] | inhibition at 1 µM (MAGL [2]) [%] | inhibition at 1 µM (MAGL [3]) [%] | inhibition at 5 mg/kg (MAGL [1]; C57Bl/6J mice) [%]
9 | O=C(O)c1ccn(C(=O)N2CCN(Cc3cc(Cl)cc(-c4cncnc4)c3)CC2)n1 [Example 269, 1-(4-(3-chloro-5-(pyrimidin-5-yl)benzyl)piperazine-1-carbonyl)-1H-pyrazole-3-carboxylic acid] | 0 to 25 | > 75 | > 75 | 
10 | CN(Cc1cc(N2CCCC2)cc(C(F)(F)F)c1)C1(C)CCN(C(=O)n2ccc(C(=O)O)n2)CC1 [Example 381, 1-(4-methyl-4-(methyl(3-(pyrrolidin-1-yl)-5-(trifluoromethyl)benzyl)amino)piper-idine-1-carbonyl)-1H-pyrazole-3-carboxylic acid] | 0 to 25 | > 75 | > 75 | 
11 | Cc1cc(-c2ccccc2)ccc1CN1CCN(C(=O)n2ccc(C(=O)O)n2)[C@H](C)C1 [Example 245, (R)-1-(2-methyl-4-((3-methyl-[1,1′-biphenyl]-4-yl)methyl)piperazine-1-carbonyl)-1H-pyrazole-3-carboxylic acid] | 0 to 25 | > 75 | > 75 | 
12 | O=C(O)c1ccn(C(=O)N2CCC3(CCCN3C(=O)c3ccc(C(F)(F)F)cc3N3CCCC3)CC2)n1 [Example 403, 1-(1-(2-(pyrrolidin-1-yl)-4-(trifluoromethyl)benzoyl)-1,8-diazaspiro[4.5]decane-8-carbonyl)-1H-pyrazole-3-carboxylic acid] |  | > 75 | > 75 | 0 to 25
13 | O=C(O)c1ccn(C(=O)N2CCC3(CCCN3Cc3ccc(C(F)(F)F)cc3N3CCC(F)CC3)CC2)n1 [Example 413, 1-(1-(2-(4-fluoropiperidin-1-yl)-4-(trifluoromethyl)benzyl)-1,8-diazaspiro[4.5]decane-8-carbonyl)-1H-pyrazole-3-carboxylic acid] |  | > 75 | > 75 | 0 to 25
14 | C[C@@H]1CN(Cc2ccc(-c3ccccc3)cc2Cl)CCN1C(=O)n1ccc(C(=O)O)n1 [Example 291, (R)-1-(4-((3-chloro-[1,1′-biphenyl]-4-yl)methyl)-2-methylpiperazine-1-carbonyl)-1H-pyrazole-3-carboxylic acid] | 25 to 50 | > 75 | > 75 | 
15 | CN(Cc1cccc(C(F)(F)F)c1N1CCCC1)C1(C)CCN(C(=O)n2ccc(C(=O)O)n2)CC1 [Example 382, 1-(4-methyl-4-(methyl(2-(pyrrolidin-1-yl)-3-(trifluoromethyl)benzyl)amino)piper-idine-1-carbonyl)-1H-pyrazole-3-carboxylic acid] | 0 to 25 | > 75 | > 75 | 
16 | CN(Cc1cc(C(F)(F)F)ccc1N1CCCC1)C1(C)CCN(C(=O)n2ccc(C(=O)O)n2)CC1 [Example 384, 1-(4-methyl-4-(methyl(2-(pyrrolidin-1-yl)-5-(trifluoromethyl)benzyl)amino)piper-idine-1-carbonyl)-1H-pyrazole-3-carboxylic acid] | 0 to 25 | > 75 | > 75 | 
17 | C[C@H]1CN(Cc2ccc(C(F)(F)F)cc2N2CCCC2)CCN1C(=O)n1ccc(C(=O)O)n1 [Example 328, (S)-1-(2-methyl-4-(2-(pyrrolidin-1-yl)-4-(trifluoromethyl)benzyl)piperazine-1-carbonyl)-1H-pyrazole-3-carboxylic acid] | 0 to 25 | > 75 | > 75 | 
18 | O=C(O)c1nn(C(=O)N2CCC3(CCN(Cc4cc(Cl)cc(C(F)(F)F)c4)C3)CC2)cc1Cl [Example 388, 4-chloro-1-(2-(3-chloro-5-(trifluoromethyl)benzyl)-2,8-diazaspiro[4.5]decane-8-carbonyl)-1H-pyrazole-3-carboxylic acid] | 0 to 25 | > 75 | > 75 | 
19 | C[C@H]1CN(Cc2cc(F)cc(Oc3ccc(Cl)cc3)c2)CCN1C(=O)n1ccc(C(=O)O)n1 [Example 347, (S)-1-(4-(3-(4-chlorophenoxy)-5-fluorobenzyl)-2-methylpiperazine-1-carbonyl)-1H-pyrazole-3-carboxylic acid] | 0 to 25 | > 75 | > 75 | 

Source: US10266497B2 (ABIDE THERAPEUTICS, INC., priority 2017, dated 2019)
